Laboratory results as given in US20250084078A1, “FUSED RING-SUBSTITUTED SIX-MEMBERED HETEROCYCLIC COMPOUND, AND PREPARATION METHOD THEREFOR AND USE THEREOF” (GENFLEFT THERAPEUTICS (SHANGHAI) INC., priority 2022, published 2025).
Where a name gives a salt, the structure may show the parent alone.

Experiments:
HPK1 [1] = molecular target: HPK1 (Homo sapiens, UniProt Q92918); assay: SLP76 phosphorylation assay (intracellular HPK1 inhibitory activity, p-SLP76 S376 ELISA in Jurkat cells); conditions: Clone E6-1 cells, 1 h compound pre-incubation, anti-CD3 beads stimulation 20 min, Phospho-SLP-76 (Ser376) ELISA
Target sequence in this assay (Q92918 whole entry): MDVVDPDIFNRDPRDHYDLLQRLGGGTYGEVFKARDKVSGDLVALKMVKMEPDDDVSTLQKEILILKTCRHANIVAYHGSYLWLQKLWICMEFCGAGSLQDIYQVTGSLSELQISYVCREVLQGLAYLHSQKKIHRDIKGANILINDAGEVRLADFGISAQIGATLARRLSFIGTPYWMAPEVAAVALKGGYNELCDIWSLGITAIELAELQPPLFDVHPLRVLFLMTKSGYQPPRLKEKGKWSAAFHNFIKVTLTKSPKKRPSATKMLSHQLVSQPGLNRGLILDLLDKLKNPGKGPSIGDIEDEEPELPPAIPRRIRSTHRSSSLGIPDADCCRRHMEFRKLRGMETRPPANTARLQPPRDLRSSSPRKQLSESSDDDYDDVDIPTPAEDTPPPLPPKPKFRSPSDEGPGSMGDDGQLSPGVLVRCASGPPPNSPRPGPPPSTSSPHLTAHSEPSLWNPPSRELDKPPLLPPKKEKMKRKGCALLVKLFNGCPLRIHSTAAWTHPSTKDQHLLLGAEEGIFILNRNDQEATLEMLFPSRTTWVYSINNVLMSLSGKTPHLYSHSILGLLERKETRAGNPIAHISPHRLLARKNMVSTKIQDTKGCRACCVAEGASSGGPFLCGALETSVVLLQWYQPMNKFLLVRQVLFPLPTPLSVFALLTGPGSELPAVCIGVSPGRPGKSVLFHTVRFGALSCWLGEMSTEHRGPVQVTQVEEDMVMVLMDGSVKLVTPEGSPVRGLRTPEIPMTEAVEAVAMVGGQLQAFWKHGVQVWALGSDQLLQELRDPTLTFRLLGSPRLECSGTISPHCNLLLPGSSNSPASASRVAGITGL

HPK1 [2] = molecular target: T1, HPK1 (Homo sapiens, UniProt Q92918); assay: HPK1 kinase activity assay (ADP-Glo); conditions: 1 nM HPK1, 10 μM ATP, 0.1 μg/μL MBP
T1 sequence (Q92918 1-346): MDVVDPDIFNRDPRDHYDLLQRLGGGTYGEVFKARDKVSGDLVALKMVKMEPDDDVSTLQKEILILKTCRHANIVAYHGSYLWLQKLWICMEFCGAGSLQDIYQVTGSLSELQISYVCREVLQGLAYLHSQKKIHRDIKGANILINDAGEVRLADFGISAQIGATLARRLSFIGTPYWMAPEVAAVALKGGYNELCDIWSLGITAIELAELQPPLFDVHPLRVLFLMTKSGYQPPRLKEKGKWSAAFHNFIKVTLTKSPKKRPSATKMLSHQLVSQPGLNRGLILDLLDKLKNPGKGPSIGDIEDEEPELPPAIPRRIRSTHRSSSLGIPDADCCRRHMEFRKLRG
Description: Preparation of buffer: Ix reaction buffer (40 mM Tris-HCl, 20 mM MgCl2, 0.01% Brij35, 50 μM DTT, 0.1 mg/ml BSA) was prepared using sterile water, which was prepared and used on the day of the experiment.
Preparation of 1000× drug stock plate: a 1000× compound stock plate was prepared. […] The compound stock plate was sealed with a sealing film and stored in a −20° C. refrigerator for later use.
Compound preparation and dosing: the 1000× drug stock plate was taken and melted at room temperature in the dark. Then 5× drug intermediate plate was prepared using reaction buffer and mixed well. 2 μL was transferred from the 5× drug intermediate plate into a 384-well plate, and negative control well and positive control well (in which 2 μL reaction buffer containing 0.5% DMSO was added) were set. Each point was repeated twice.
Preparation and incubation of reaction mixture: HPK1 protein was diluted to a 2.5× working solution with reaction buffer. 4 μL 2.5×HPK1 protein was added to each well containing test compound and positive control well, and 4 μL of reaction buffer without HPK1 protein was added to the negative control well. The obtained mixture was centrifuged at 1000 rpm for 1 min and then incubated in a 20° C. incubator for 15 min. A 2.5× mixed working solution of MBP protein and ATP was prepared with reaction buffer at concentrations of 0.5 μg/μL and 50 μM, respectively. 4 μL of the mixed working solution of MBP and ATP was added to each well, centrifuged at 1000 rpm for 1 min, and then incubated in a 20° C. incubator for 90 min.
ADP-Glo detection and reading plate: 10 μl ADP-Glo was added to each well of the test plate. The resulting mixture was centrifuged at 1000 rpm for 1 min and incubated in a 20° C. incubator for 60 min. Then 10 μL of the final incubation solution was transferred from the test plate to a new 384-well plate. 10 μL of kinase detection reagent was added to each well, centrifuged at 400 g for 1 min, and incubated in a 20° C. incubator for 60 min Chemiluminescent signals were read by a microplate reader.

[3] = HPK1 Kinase activity IC50, ADP-Glo
[4] = read-out: HPK1 Kinase activity IC50, ADP-Glo

| Compound | IC50 (HPK1 [1]; p-SLP76 IC50, Jurkat) [nM] | IC50 (HPK1 [2]; [3]) [nM] | IC50 (HPK1 [1]; read-out: p-SLP76 IC50, Jurkat) [nM] | IC50 (HPK1 [2]; [4]) [nM] |
| --- | --- | --- | --- | --- |
| O=C(N1CCc2cc(-c3cnc4[nH]cc(Cl)c4c3)cc([C@@H]3COCCN3)c2C1)N1CC[C@H](F)C1 [Compound Z604, (6-(3-chloro-1H-pyrrolo[2,3-b]pyridin-5-yl)-8-((R)-morpholin-3-yl)-3,4-dihydroisoquinolin-2(1H)-yl)((S)-3-fluoropyrrolidin-1-yl)methanone] | 108 | 0.36 |  |  |
| Cc1c[nH]c2ncc(-c3cc4c(c([C@@H]5CCCN5)c3)CN(C(=O)CC3CC3)CC4)cc12 [Compound Z220, (S)-2-cyclopropyl-1-(6-(3-methyl-1H-pyrrolo[2,3-b]pyridin-5-yl)-8-(pyrrolidin-2-yl)-3,4-dihydroisoquinolin-2(1H)-yl)ethanone] |  |  | 469 | 2.26 |
| Cc1c[nH]c2ncc(-c3cc4c(c([C@@H]5COCCN5)c3)CN(C(=O)C3(C)CCOCC3)CC4)cc12 [Compound Z615, (R)-(6-(3-methyl-1H-pyrrolo[2,3-b]pyridin-5-yl)-8-(morpholin-3-yl)-3,4-dihydroisoquinolin-2(1H)-yl)(4-methyltetrahydro-2H-pyran-4-yl)methanone] | 207 | 0.76 |  |  |
| Cc1c[nH]c2ncc(-c3cc4c(c([C@@H]5COCCN5)c3)CN(C(=O)N3C[C@@H](C)O[C@H](C)C3)CC4)nc12 [Compound Z600] | 103 | 0.08 |  |  |
| CC1(C)CC(O)CN1C(=O)N1CCc2cc(-c3cnc4[nH]cc(Cl)c4c3)cc([C@@H]3COCCN3)c2C1 (stereo partly drawn) [Compound Z617, (6-(3-chloro-1H-pyrrolo[2,3-b]pyridin-5-yl)-8-((R)-morpholin-3-yl)-3,4-dihydroisoquinolin-2(1H)-yl)(4-hydroxy-2,2-dimethylpyrrolidin-1-yl)methanone] | 86.2 | 0.36 |  |  |
| Cc1c[nH]c2ncc(-c3cc4c(c([C@@H]5COCCN5)c3)CN(C(=O)[C@](C)(O)C(F)(F)F)CC4)nc12 [Compound Z568, (S)-3,3,3-trifluoro-2-hydroxy-2-methyl-1-(6-(7-methyl-5H-pyrrolo[2,3-b]pyrazin-2-yl)-8-((R)-morpholin-3-yl)-3,4-dihydroisoquinolin-2(1H)-yl)propan-1-one] | 66.2 | 0.33 |  |  |
| 5-(8-(4-fluoropyrrolidin-2-yl)isochromen-6-yl)-3-methyl-1H-pyrrolo[2,3-b]pyridine [Compound Z367-1] |  |  | 999 | 1.44 |
| Cc1c[nH]c2ncc(-c3cc4c(c([C@@H]5COCCN5)c3)CCN(C(=O)C3CCOCC3)C4)cc12 [Compound Z377, (R)-(7-(3-methyl-1H-pyrrolo[2,3-b]pyridin-5-yl)-5-(morpholin-3-yl)-3,4-dihydroisoquinolin-2(1H)-yl)(tetrahydro-2H-pyran-4-yl)methanone] | 190 | 0.28 |  |  |
| CCc1c(Cl)[nH]c2ncc(-c3cc4c(c([C@@H]5CCCN5)c3)CN(C(=O)COC)CC4)cc12 [Compound Z411] | 428 | 1.12 |  |  |
| Cc1c[nH]c2ncc(-c3cc4c(c([C@@H]5COCCN5)c3)CN(C(=O)C3(O)CCOCC3)CC4)cc12 [Compound Z450] | 158 | 0.22 |  |  |
| Cc1c[nH]c2ncc(-c3cc4c(c([C@@H]5COCCN5)c3)CN(C(=O)N3CC5CCC(C3)O5)CC4)nc12 [Compound Z572, (8-oxa-3-50 azabicyclo[3.2.1]octan-3-yl)(6-(7-methyl-5H-pyrrolo[2,3-b]pyrazin-2-yl)-8-((R)-morpholin-3-yl)-3,4-dihydroisoquinolin-2(1H)-yl)methanone] | 28 | 0.16 |  |  |
| O=C(N1CCc2cc(-c3cnc4[nH]cc(C(F)(F)F)c4c3)cc([C@@H]3COCCN3)c2C1)N1CC2CCC(C1)O2 [Compound Z544, (8-oxa-3-azabicyclo[3.2.1]octan-3-yl)(8-((R)-morpholin-3-yl)-6-(3-(trifluoromethyl)-1H-pyrrolo[2,3-b]pyridin-5-yl)-3,4-dihydroisoquinolin-2(1H)-yl)methanone] | 50.1 | 0.12 |  |  |
| Cc1c[nH]c2ncc(-c3cc4c(c([C@@H]5COCCN5)c3)CN(C(=O)N3C5CCC3COC5)CC4)cc12 [Compound Z492, (3-oxa-8-azabicyclo[3.2.1]octan-8-yl)(6-(3-methyl-1H-pyrrolo[2,3-b]pyridin-5-yl)-8-((R)-morpholin-3-yl)-3,4-dihydroisoquinolin-2(1H)-yl)methanone] | 95.7 | 0.18 |  |  |
| Cc1c[nH]c2ncc(-c3cc4c(c([C@@H]5COCCN5)c3)CN(C(=O)N3CC5CCC(C3)O5)CC4)cc12 [Compound Z451, (8-oxa-3-azabicyclo[3.2.1]octan-3-yl)(6-(3-methyl-1H-pyrrolo[2,3-b]pyridin-5-yl)-8-((R)-morpholin-3-yl)-3,4-dihydroisoquinolin-2(1H)-yl)methanone] | 44.2 | 0.11 |  |  |
| Cc1c[nH]c2ncc(-c3cc4c(c([C@@H]5COCCN5)c3)CCN(C(=O)[C@H]3CCOC3)C4)cc12 [Compound Z446, (7-(3-methyl-1H-pyrrolo[2,3-b]pyridin-5-yl)-5-((R)-morpholin-3-yl)-3,4-dihydroisoquinolin-2(1H)-yl)((S)-tetrahydrofuran-3-yl)methanone] | 196 | 0.83 |  |  |
| O=C(N1CCc2cc(-c3cnc4[nH]cc(Cl)c4c3)cc([C@@H]3COCCN3)c2C1)N1CC2CCC(C1)O2 [Compound Z447, (8-oxa-3-azabicyclo[3.2.1]octan-3-yl)(6-(3-chloro-1H-pyrrolo[2,3-b]pyridin-5-yl)-8-((R)-morpholin-3-yl)-3,4-dihydroisoquinolin-2(1H)-yl)methanone] | 44.8 | 0.18 |  |  |

The next lines start with results.

| IC50 (HPK1 [1]; p-SLP76 IC50, Jurkat) [nM] | IC50 (HPK1 [2]; [3]) [nM] | Compound | IC50 (HPK1 [1]; read-out: p-SLP76 IC50, Jurkat) [nM] | IC50 (HPK1 [2]; [4]) [nM] |
| --- | --- | --- | --- | --- |
| 67 | 0.21 | CCc1c[nH]c2ncc(-c3cc4c(c([C@@H]5COCCN5)c3)CN(C(=O)C(C)(C)O)CC4)cc12 [Compound Z476, (R)-1-(6-(3-ethyl-1H-pyrrolo[2,3-b]pyridin-5-yl)-8-(morpholin-3-yl)-3,4-dihydroisoquinolin-2(1H)-yl)-2-hydroxy-2-methylpropan-1-one] |  |  |
| 186 | 0.4 | Cc1c[nH]c2ncc(-c3cc4c(c([C@@H]5CCCN5)c3)CN(C(=O)N3CCOC(C(F)(F)F)C3)CC4)cc12 (stereo partly drawn) [Compound Z497, [6-(3-methyl-1H-pyrrolo[2,3-b]pyridin-5-yl)-8-[(S)-pyrrolidin-2-yl]-3,4-dihydro-isoquinolin-2(1H)-yl]-[2-(trifluoromethyl)morpholin-4-yl]methanone] |  |  |
| 253 | 0.85 | CC(C)(O)C(=O)N1CCc2cc(-c3cnc4[nH]cc(F)c4c3)cc([C@@H]3COCCN3)c2C1 [Compound Z445, (R)-1-(6-(3-fluoro-1H-pyrrolo[2,3-b]pyridin-5-yl)-8-(morpholin-3-yl)-3,4-dihydroisoquinolin-2(1H)-yl)-2-hydroxy-2-methylpropan-1-one] |  |  |
| 430 | 1.66 | Cc1c[nH]c2ncc(-c3cc4c(c([C@@H]5CCCN5)c3)CN(C(=O)N3CCOC(C(F)(F)F)C3)CC4)cc12 (single isomer, unassigned) [Compound Z490] |  |  |
| 252 | 0.78 | Cc1c[nH]c2ncc(-c3cc4c(c([C@@H]5CCCN5)c3)CN(C(=O)C(C)(C)C)CC4)cc12 [Compound Z126] |  |  |
| 295 | 0.41 | Cc1c[nH]c2ncc(-c3cc4c(c([C@@H]5CCCN5)c3)CN(C(=O)c3cc(C5CC5)nn3C)CC4)cc12 [Compound Z493, (S)-(3-cyclopropyl-1-methyl-1H-pyrazol-5-yl)-[6-(3-methyl-1H-pyrrolo[2,3-b]pyridin-5-yl)-8-[pyrrolidin-5-yl]-3,4-dihydroisoquinolin-2(1H)-yl]methanone] |  |  |
| 105 | 0.22 | Cc1c[nH]c2ncc(-c3cc4c(c([C@@H]5COCCN5)c3)CN(C(=O)N3C[C@@H](C)O[C@H](C)C3)CC4)cc12 [Compound Z552, ((2R,6R)-2,6-dimethylmorpholine)(6-(3-methyl-1H-pyrrolo[2,3-b]pyridin-5-yl)-8-((R)-morpholin-3-yl)-3,4-dihydroisoquinolin-2(1H)-yl)methanone] |  |  |
| 51.8 | 0.17 | CC(C)(O)C(=O)N1CCc2cc(-c3cnc4[nH]cc(C5CC5)c4c3)cc([C@@H]3COCCN3)c2C1 [Compound Z523, (R)-1-(6-(3-cyclopropyl-1H-pyrrolo[2,3-b]pyridin-5-yl)-8-(morpholin-3-yl)-3,4-dihydroisoquinolin-2(1H)-yl)-2-hydroxy-2-methylpropan-1-one] |  |  |
| 205 | 0.49 | Cc1cc(CC(=O)N2CCc3c(cc(-c4cnc5[nH]cc(C)c5c4)cc3[C@@H]3CCCN3)C2)ccn1 [Compound Z333, (S)-2-(2-methyl-4-pyridyl)-1-[7-(3-methyl-1H-pyrrolo[2,3-b]pyridin-5-yl)-5-pyrrolidin-2-yl-3,4-dihydro-1H-isoquinolin-2-yl]ethanone] |  |  |
| 211 | 0.33 | CCNC(=O)N1CCc2cc(-c3cnc4[nH]cc(C)c4c3)cc([C@@H]3COCCN3)c2C1 [Compound Z376, (R)—N-ethyl-6-(3-methyl-1H-pyrrolo[2,3-b]pyridin-5-yl)-8-(morpholin-3-yl)-3,4-dihydroisoquinoline-2(1H)-carboxamide formate] |  |  |
